Measured values reported in US7268125B2 (Azevan Pharmaceuticals, Inc., priority 2001, dated 2007).

Target: T1, human V1a receptor (Homo sapiens, UniProt P37288)
T1 construct: host or cells: CHO cells
Assay: Human vasopressin V1a receptor binding assay
Conditions: hV1a cell line (CHO), competition with 1 nM 3H-AVP, 45 minutes at 37° C.; read-out: V1a BINDING AFFINITY (IC50 (nM))
Description: Human Vasopression V1a Receptor Binding Assay.
A cell line expressing the human V1a receptor in CHO cells (henceforth referred to as the hV1a cell line) was obtained from Dr. Michael Brownstein, NIMH, Bethesda, Md., USA. The hV1a cDNA sequence is described by Thibonnier et al., Journal of Biological Chemistry, 269, 3304-3310 (1994), and the expression method was the same as described by Morel et al. (1992). The hV1a cell line was grown in alpha-MEM with 10% fetal bovine serum and 250 ug/ml G418 (Gibco, Grand Island, N.Y., USA). For competitive binding assay, hV1a cells were plated into 6-well culture plate at 1:10 dilution from a confluency flask, and maintained in culture for at least two days. Culture medium was then removed, cells were washed with 2 ml binding buffer (25 mM Hepes, 0.25% BSA, 1×DMEM, PH=7.0). To each well, 990 μl binding buffer containing 1 nM 3H-AVP was added, and followed by 10 μl series diluted Example compounds dissolved in DMSO. […] 100 nM cold AVP (Sigma) was used to assess non-specific binding. Cells were incubated for 45 minutes at 37° C., assay mixture was removed and each well was washed three times with PBS (pH=7.4). 1 ml 2% SDS was added per well and plates were let sit for 30 minutes. The whole content in a well was transferred to a scintillation vial. Each well was rinsed with 0.5 ml PBS which was then added to the corresponding vial. Scintillation fluid (Ecoscint, National Diagnostics, Atlanta, Ga.) was then added at 3 ml per vial. Samples were counted in a liquid scintillation counter (Beckman LS3801). IC50 values were calculated by Prism Curve fitting software.
All of the alkanedioic esters and amides exemplified in the foregoing examples were tested in this assay described of Example 201.

T1 sequence (P37288 whole entry): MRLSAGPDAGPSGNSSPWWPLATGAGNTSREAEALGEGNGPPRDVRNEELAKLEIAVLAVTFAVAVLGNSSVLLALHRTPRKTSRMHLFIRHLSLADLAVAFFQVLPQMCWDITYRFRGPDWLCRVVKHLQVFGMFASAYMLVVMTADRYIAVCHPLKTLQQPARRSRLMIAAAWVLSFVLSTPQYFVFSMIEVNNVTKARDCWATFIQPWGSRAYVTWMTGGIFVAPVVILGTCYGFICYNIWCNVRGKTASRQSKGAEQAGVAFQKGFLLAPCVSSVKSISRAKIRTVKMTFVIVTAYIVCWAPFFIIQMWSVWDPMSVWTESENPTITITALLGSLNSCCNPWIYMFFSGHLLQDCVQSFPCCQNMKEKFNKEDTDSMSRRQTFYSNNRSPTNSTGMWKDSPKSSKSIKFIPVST

Row | Structure (SMILES) | IC50 [nM]
1 | CC(C)(C)OC(=O)C(C(=O)NCc1cccc(C(F)(F)F)c1)N1C(=O)[C@@H](N2C(=O)OC[C@@H]2c2ccccc2)[C@H]1/C=C/c1ccccc1 (mixture of isomers) [Example 18, 2(RS)-(tert-Butoxycarbonyl)-2-[3(S)-(4(S)-phenyloxazolidin-2-on-3-yl)-4(R)-(2-styryl)azetidin-2-on-1-yl]acetic acid N-(3-trifluoromethylbenzyl)amide] | 35
2 | O=C(NCc1cccc(C(F)(F)F)c1)C(C(=O)N1CCC(N2CCCCC2)CC1)N1C(=O)[C@@H](N2C(=O)OC[C@@H]2c2ccccc2)[C@H]1/C=C/c1ccccc1 (mixture of isomers) [Example 37] | 5.5
3 | CCCCN1CCN(C(=O)C(C(=O)NCc2cccc(C(F)(F)F)c2)N2C(=O)[C@@H](N3C(=O)OC[C@@H]3c3ccccc3)[C@H]2/C=C/c2ccccc2)CC1 (mixture of isomers) [Example 40] | 11
4 | CC(C)N1CCN(C(=O)C(C(=O)NCc2cccc(C(F)(F)F)c2)N2C(=O)[C@@H](N3C(=O)OC[C@@H]3c3ccccc3)[C@H]2/C=C/c2ccccc2)CC1 (mixture of isomers) [Example 41] | < 20
5 | O=C(NCc1cccc(C(F)(F)F)c1)C(C(=O)N1CCN(C2CCCCC2)CC1)N1C(=O)[C@@H](N2C(=O)OC[C@@H]2c2ccccc2)[C@H]1/C=C/c1ccccc1 (mixture of isomers) [Example 42] | < 20
6 | CCCCN1CCN(C(=O)CCC(C(=O)NCc2cccc(C(F)(F)F)c2)N2C(=O)C(N3C(=O)OCC3c3ccccc3)C2C=Cc2ccccc2)CC1 (single isomer, unassigned) [Example 103] | 0.81
7 | CC(C)(C)OC(=O)C[C@@H](C(=O)NCc1cccc(C(F)(F)F)c1)N1C(=O)[C@@H](N2C(=O)OC[C@@H]2c2ccccc2)[C@H]1/C=C/c1ccccc1 [Example 19, 2(S)-(tert-Butoxycarbonylmethyl)-2-[3(S)-(4(S)-phenyloxazolidin-2-on-3-yl)-4(R)-(2-styryl)azetidin-2-on-1-yl]acetic acid N-(3-trifluoromethylbenzyl)amide] | 35
8 | CC(C)(C)OC(=O)CC[C@@H](C(=O)NCc1cccc(C(F)(F)F)c1)N1C(=O)[C@@H](N2C(=O)OC[C@@H]2c2ccccc2)[C@H]1/C=C/c1ccccc1 [Example 20, 2(S)-(tert-Butoxycarbonylethyl)-2-[3(S)-(4(S)-phenyloxazolidin-2-on-3-yl)-4(R)-(2-styryl)azetidin-2-on-1-yl]acetic acid N-(3-trifluoromethylbenzyl)amide] | 35
9 | O=C(NCc1cccc(C(F)(F)F)c1)[C@H](CC(=O)N1CCN(CCN2CCCC2)CC1)N1C(=O)[C@@H](N2C(=O)OC[C@@H]2c2ccccc2)[C@H]1/C=C/c1ccccc1 [Example 78] | < 100
10 | O=C(NCc1cccc(C(F)(F)F)c1)[C@H](CCC(=O)N1CCN(N2CCCC2)CC1)N1C(=O)[C@@H](N2C(=O)OC[C@@H]2c2ccccc2)[C@H]1/C=C/c1ccccc1 [Example 91] | 3.24
11 | CN(C)CCNC(=O)CC[C@@H](C(=O)NCc1cccc(C(F)(F)F)c1)N1C(=O)[C@@H](N2C(=O)OC[C@@H]2c2ccccc2)[C@H]1/C=C/c1ccccc1 [Example 100] | < 100
12 | O=C(NCc1cccc(C(F)(F)F)c1)[C@H](CCC(=O)N1CCN(CC(=O)N2CCCC2)CC1)N1C(=O)[C@@H](N2C(=O)OC[C@@H]2c2ccccc2)[C@H]1/C=C/c1ccccc1 [Example 101] | ~100
13 | CN1CCC(N2CCN(C(=O)CC[C@@H](C(=O)NCc3cccc(C(F)(F)F)c3)N3C(=O)[C@@H](N4C(=O)OC[C@@H]4c4ccccc4)[C@H]3/C=C/c3ccccc3)CC2)CC1 [Example 102] | < 100
14 | CN(C)CCCNC(=O)CC[C@@H](C(=O)NCc1cccc(C(F)(F)F)c1)N1C(=O)[C@@H](N2C(=O)OC[C@@H]2c2ccccc2)[C@H]1/C=C/c1ccccc1 [Example 106] | ~100
15 | O=C(NCc1cccc(C(F)(F)F)c1)[C@H](CCC(=O)N1CCN(CCC2CCCCC2)CC1)N1C(=O)[C@@H](N2C(=O)OC[C@@H]2c2ccccc2)[C@H]1/C=C/c1ccccc1 [Example 111] | 1.31
16 | O=C(NCc1cccc(C(F)(F)F)c1)[C@H](CCC(=O)N1CCN(CCN2CCOCC2)CC1)N1C(=O)[C@@H](N2C(=O)OC[C@@H]2c2ccccc2)[C@H]1/C=C/c1ccccc1 [Example 112] | 1.34
17 | O=C(NCc1cccc(C(F)(F)F)c1)[C@H](CCC(=O)N1CCN(CC2CCCCC2)CC1)N1C(=O)[C@@H](N2C(=O)OC[C@@H]2c2ccccc2)[C@H]1/C=C/c1ccccc1 [Example 120] | 0.75
18 | O=C(NCc1cccc(C(F)(F)F)c1)[C@@H](CCC(=O)N1CCC(N2CCCCC2)CC1)N1C(=O)[C@@H](N2C(=O)OC[C@@H]2c2ccccc2)[C@H]1/C=C/c1ccccc1 [Example 135] | ~50
19 | CCCCN1CCN(C(=O)CC[C@H](C(=O)NCc2cccc(C(F)(F)F)c2)N2C(=O)[C@@H](N3C(=O)OC[C@@H]3c3ccccc3)[C@H]2/C=C/c2ccccc2)CC1 [Example 137] | 17

Second part, the compound after the results:

Row | IC50 [nM] | Structure (SMILES)
20 | < 25 | O=C(NCc1cccc(C(F)(F)F)c1)C(C(=O)N1CCN(CCc2ccccc2)CC1)N1C(=O)[C@@H](N2C(=O)OC[C@@H]2c2ccccc2)[C@H]1/C=C/c1ccccc1 (mixture of isomers) [Example 38]
21 | 23 | O=C(NCc1cccc(C(F)(F)F)c1)C(C(=O)NC1CCN(Cc2ccccc2)CC1)N1C(=O)[C@@H](N2C(=O)OC[C@@H]2c2ccccc2)[C@H]1/C=C/c1ccccc1 (mixture of isomers) [Example 39]
22 | 1.85 | CC(C)N1CCN(C(=O)CCC(C(=O)NCc2cccc(C(F)(F)F)c2)N2C(=O)C(N3C(=O)OCC3c3ccccc3)C2C=Cc2ccccc2)CC1 (single isomer, unassigned) [Example 104]
23 | < 100 | CCCCN1CCN(C(=O)C[C@@H](C(=O)NCc2cccc(C(F)(F)F)c2)N2C(=O)[C@@H](N3C(=O)OC[C@@H]3c3ccccc3)[C@H]2/C=C/c2ccccc2)CC1 [Example 59]
24 | 1.84 | O=C(C[C@@H](C(=O)NCc1cccc(C(F)(F)F)c1)N1C(=O)[C@@H](N2C(=O)OC[C@@H]2c2ccccc2)[C@H]1/C=C/c1ccccc1)NC1CCN(Cc2ccccc2)CC1 [Example 63]
25 | ~50 | O=C(NCc1cccc(C(F)(F)F)c1)[C@H](CC(=O)N1CCN(C2CCCCC2)CC1)N1C(=O)[C@@H](N2C(=O)OC[C@@H]2c2ccccc2)[C@H]1/C=C/c1ccccc1 [Example 66]
26 | < 100 | O=C(NCc1cccc(C(F)(F)F)c1)[C@H](CC(=O)N1CCN(C2CCCC2)CC1)N1C(=O)[C@@H](N2C(=O)OC[C@@H]2c2ccccc2)[C@H]1/C=C/c1ccccc1 [Example 77]
27 | < 100 | CCN(CC)CCN1CCN(C(=O)C[C@@H](C(=O)NCc2cccc(C(F)(F)F)c2)N2C(=O)[C@@H](N3C(=O)OC[C@@H]3c3ccccc3)[C@H]2/C=C/c2ccccc2)CC1 [Example 81]
28 | < 50 | O=C(NCc1cccc(C(F)(F)F)c1)[C@H](CC(=O)N1CCCN(Cc2ccccc2)CC1)N1C(=O)[C@@H](N2C(=O)OC[C@@H]2c2ccccc2)[C@H]1/C=C/c1ccccc1 [Example 82]
29 | 5.87 | O=C(C[C@@H](C(=O)NCc1cccc(C(F)(F)F)c1)N1C(=O)[C@@H](N2C(=O)OC[C@@H]2c2ccccc2)[C@H]1/C=C/c1ccccc1)N[C@H]1CCN(Cc2ccccc2)C1 [Example 85]
30 | 15 | O=C(CC[C@@H](C(=O)NCc1cccc(C(F)(F)F)c1)N1C(=O)[C@@H](N2C(=O)OC[C@@H]2c2ccccc2)[C@H]1/C=C/c1ccccc1)NCCN1CCCCC1 [Example 87]
31 | 1.76 | O=C(NCc1cccc(C(F)(F)F)c1)[C@H](CCC(=O)N1CCN(Cc2ccccc2)CC1)N1C(=O)[C@@H](N2C(=O)OC[C@@H]2c2ccccc2)[C@H]1/C=C/c1ccccc1 [Example 95]
32 | 4.35 | O=C(NCc1cccc(C(F)(F)F)c1)[C@H](CCC(=O)N1CCN(Cc2ccc3c(c2)OCO3)CC1)N1C(=O)[C@@H](N2C(=O)OC[C@@H]2c2ccccc2)[C@H]1/C=C/c1ccccc1 [Example 96]
33 | < 50 | O=C(CC[C@@H](C(=O)NCc1cccc(C(F)(F)F)c1)N1C(=O)[C@@H](N2C(=O)OC[C@@H]2c2ccccc2)[C@H]1/C=C/c1ccccc1)NC1CCN(Cc2ccccc2)CC1 [Example 107]
34 | ~100 | CN(C)CCN(Cc1ccccc1)C(=O)CC[C@@H](C(=O)NCc1cccc(C(F)(F)F)c1)N1C(=O)[C@@H](N2C(=O)OC[C@@H]2c2ccccc2)[C@H]1/C=C/c1ccccc1 [Example 108]
35 | ~100 | O=C(CC[C@@H](C(=O)NCc1cccc(C(F)(F)F)c1)N1C(=O)[C@@H](N2C(=O)OC[C@@H]2c2ccccc2)[C@H]1/C=C/c1ccccc1)NCc1cccnc1 [Example 109]
36 | 11 | O=C(NCc1cccc(C(F)(F)F)c1)[C@@H](CCC(=O)N1CCN(CCc2ccccc2)CC1)N1C(=O)[C@@H](N2C(=O)OC[C@@H]2c2ccccc2)[C@H]1/C=C/c1ccccc1 [Example 136]
37 | 21 | CC(C)N1CCN(C(=O)CC[C@H](C(=O)NCc2cccc(C(F)(F)F)c2)N2C(=O)[C@@H](N3C(=O)OC[C@@H]3c3ccccc3)[C@H]2/C=C/c2ccccc2)CC1 [Example 138]
